Experimental findings from US7423175B2, “Hydroxy-tetrahydro-naphthalenylurea derivatives” (Bayer Healthcare AG, priority 2003, dated 2008) are described below.

Series [1] concerns the target T1, human VR1 (Homo sapiens, UniProt Q8NER1).
T1 construct: expressed in transfected cells; host or cells: CHOluc9aeq (CHO cells with aequorin and CRE-luciferase reporter genes)
Briefly: Capsaicin-induced Ca2+ influx in the human VR1-transfected CHO cell line (Assay 1). In kind it is cell-based. The note with it: human VR1-CHOluc9aeq cells, stimulation with 10 nM capsaicin; read-out: activity class (IC50). An excerpt:
[Measurement of Capsalcin-Induced Ca^2+ Influx in the Human VR1-Transfected CHO Cell Line] (Assay 1)
(1) Establishment of the Human VR1-CHOluc9aeq Cell Line
Human vanilloid receptor (hVR1) cDNA was cloned from libraries of axotomized dorsal root ganglia (WO 00/29577). The cloned hVR1 cDNA was constructed with pcDNA3 vector and transfected into a CHOluc9aeq cell line. The cell line contains aequorin and CRE-luciferase reporter genes as read-out signals. The transfectants were cloned by limiting dilution in selection medium (DMEM/F12 medium (Gibco BRL) supplemented with 10% FCS, 1.4 mM Sodium pyruvate, 20 mM HEPES, 0.15% Sodium bicarbonate, 100 U/ml penicillin, 100 μg/ml streptomycin, 2 mM glutamine, non-essential amino acids and 2 mg/ml G418). Ca^2+ influx was examined in the capsaicin-stimulated clones. A high responder clone was selected and used for further experiments in the project. The human VR1-CHOluc9aeq cells were maintained in the selection medium and passaged every 3-4 days at 1-2.5×10^5 cells/flask ([…]).
(2) Measurement of Ca^2+ Influx Using FDSS-3000
Human VR1-CHOluc9aeq cells were suspended in a culture medium which is the same as the selection medium except for G418 and seeded at a density of 1,000 cells per well into 384-well plates (black walled clear-base/Nalgei Nunc International). Following the culture for 48 hrs the medium was changed to 2 μM Fluo-3 AM (Molecular Probes) and 0.02% Puronic F-127 in assay buffer (Hank's balanced salt solution (HBSS), 17 mM HEPES (pH7.4), 1 mM Probenecid, 0.1% BSA) and the cells were incubated for 60 min at 25° C. After washing twice with assay buffer the cells were incubated with a test compound or vehicle for 20 min at 25° C. Mobilization of cytoplasmic Ca^2+ was measured by FDSS-3000 (λex=488 nm, λem=546 nm/Hamamatsu Photonics) for 60 sec after the stimulation with 10 nM capsaicin. Integral R was calculated and compared with controls.
Results in capsaicin-induced Ca^2+ influx assay in the human VR1-transfected CHO cell line (Assay 1) are shown in Examples and tables of the Examples below. For practical reasons, the compounds are grouped in four classes based on activity as follows: IC50=A(< or =)0.1 μM<B(< or =)0.5 μM<C(< or =)1 μM<D

T1 sequence (Q8NER1 whole entry): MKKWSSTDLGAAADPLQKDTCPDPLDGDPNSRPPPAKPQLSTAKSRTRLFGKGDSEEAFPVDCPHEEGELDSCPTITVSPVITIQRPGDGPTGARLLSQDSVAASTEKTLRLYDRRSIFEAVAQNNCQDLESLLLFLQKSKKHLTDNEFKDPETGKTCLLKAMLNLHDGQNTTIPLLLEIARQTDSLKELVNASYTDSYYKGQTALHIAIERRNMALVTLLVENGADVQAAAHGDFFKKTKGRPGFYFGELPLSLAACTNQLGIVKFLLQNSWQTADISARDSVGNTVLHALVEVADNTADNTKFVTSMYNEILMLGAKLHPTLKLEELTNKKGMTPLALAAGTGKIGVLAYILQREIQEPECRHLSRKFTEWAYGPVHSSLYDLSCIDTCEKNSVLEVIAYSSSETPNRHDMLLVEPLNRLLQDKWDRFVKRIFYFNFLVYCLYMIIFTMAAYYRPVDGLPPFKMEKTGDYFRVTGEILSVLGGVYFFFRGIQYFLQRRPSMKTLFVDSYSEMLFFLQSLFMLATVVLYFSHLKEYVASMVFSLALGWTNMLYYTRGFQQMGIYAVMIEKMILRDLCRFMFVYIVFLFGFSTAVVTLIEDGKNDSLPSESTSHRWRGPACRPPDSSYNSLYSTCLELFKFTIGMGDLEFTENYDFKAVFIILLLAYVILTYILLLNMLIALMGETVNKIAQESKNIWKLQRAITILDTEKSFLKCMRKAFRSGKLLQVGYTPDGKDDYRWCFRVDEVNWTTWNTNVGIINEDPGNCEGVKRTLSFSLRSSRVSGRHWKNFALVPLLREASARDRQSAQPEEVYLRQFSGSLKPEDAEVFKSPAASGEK

By melting point is commonly meant the temperature of the solid-liquid transition. A word on the IC50: it is the midpoint of a concentration-inhibition curve. Regarding `O=C(NCCOc1ccc(F)cc1)Nc1cccc2c1CC(O)CC2` (centres unmarked) [Example 1-1, N-[2-(4-Fluorophenoxy)ethyl]-N′-(7-hydroxy-5,6,7,8-tetrahydronaphthalen-1-yl)urea], the melting point lay within 167 to 169 °C. Moreover, in series [1], the IC50 was under 0.1 µM.

Take `O=C(NCCOc1ccc(F)cc1)Nc1cccc2c1C[C@@H](O)CC2` [Example 1-8, N-[2-(4-Fluorophenoxy)ethyl]-N′-[(7S)-7-hydroxy-5,6,7,8-tetrahydronaphthalen-1-yl]urea]: the melting point was in the range of 112 to 113 °C. For the same compound, the IC50 in series [1] was under 0.1 µM.

As for `CN(CCCNC(=O)Nc1cccc2c1CC(O)CC2)c1ccccc1` (centres unmarked) [Example 1-13, N-(7-Hydroxy-5,6,7,8-tetrahydronaphthalen-1-yl)-N′-[3-(methyl-phenyl-amino)propyl]urea], the melting point lay within 125 to 126 °C. The half-maximal inhibitory concentration (IC50) in series [1] was under 0.1 µM.

`CCN(CCNC(=O)Nc1cccc2c1C[C@H](O)CC2)c1cccc(C)c1` [Example 1-11, N-{2-[Ethyl(m-tolyl)amino]ethyl}-N′-[(7R)-7-hydroxy-5,6,7,8-tetrahydro-1-naphthalenyl]urea] gave a melting point of 143 to 144 °C. In series [1], the IC50 was under 0.1 µM.

As to `COc1ccccc1OCCNC(=O)Nc1cccc2c1CC(O)CC2` (centres unmarked) [Example 1-6, N-(7-Hydroxy-5,6,7,8-tetrahydronaphthalen-1-yl)-N′-[2-(2-methoxyphenoxy)ethyl]urea], the melting point lay in the range of 182 to 184 °C. Besides, the half-maximal inhibitory concentration (IC50) in series [1] is over 1 µM.

Take `O=C(NCCOc1ccccc1N1CCCCC1)Nc1cccc2c1CC(O)CC2` (centres unmarked) [Example 1-5, N-(7-Hydroxy-5,6,7,8-tetrahydronaphthalen-1-yl)-N′-[2-(2-piperidin-1-yl-phenoxy)ethyl]urea]: the melting point is 128 to 136 °C. For the same compound, the IC50 in series [1] is under 0.1 µM.

`CCN(CCNC(=O)Nc1cccc2c1CC(O)CC2)c1cccc(C)c1` (centres unmarked) [Example 1-9, N-{2-[Ethyl(m-tolyl)amino]ethyl]-N′-(7-hydroxy-5,6,7,8-tetrahydro-1-naphthalenyl)urea] showed a melting point of 149 to 150 °C. In addition, the IC50 in series [1] was under 0.1 µM.

`Cc1cccc(N(C)CCNC(=O)Nc2cccc3c2CC(O)CC3)c1` (centres unmarked) [Example 1-10, N-(7-Hydroxy-5,6,7,8-tetrahydronaphthalen-1-yl)-N′-{2-[methyl(m-tolyl)amino]-ethyl}urea] displayed a melting point of 160 to 162 °C. In addition, in series [1], the half-maximal inhibitory concentration (IC50) is under 0.1 µM.

In turn, `O=C(NCCOc1ccc(F)cc1)Nc1cccc2c1C[C@H](O)CC2` [Example 1-7, N-[2-(4-Fluorophenoxy)ethyl]-N′-[(7R)-7-hydroxy-5,6,7,8-tetrahydronaphthalen-1-yl]urea] yielded a melting point of 111 to 113 °C. In series [1], the IC50 was under 0.1 µM.

`CCN(CCNC(=O)Nc1cccc2c1C[C@@H](O)CC2)c1cccc(C)c1` [Example 1-12, N-{2-[Ethyl(m-tolyl)amino]ethyl}-N′-[(7S)-7-hydroxy-5,6,7,8-tetrahydro-1-naphthalenyl]urea] displayed a melting point of 136 to 137 °C. Further, the IC50 in series [1] is under 0.1 µM.

For the compound `O=C(NCCOc1ccccc1F)Nc1cccc2c1CC(O)CC2` (centres unmarked) [Example 1-2, N-[2-(2-Fluorophenoxy)ethyl]-N′-(7-hydroxy-5,6,7,8-tetrahydro-1-naphthalenyl)-urea], the melting point lay within 131 to 136 °C. In addition, in series [1], the IC50 was under 0.1 µM.

As to `O=C(NCCOc1cc(C(F)(F)F)cc(C(F)(F)F)c1)Nc1cccc2c1CC(O)CC2` (centres unmarked) [Example 1-4, N-{2-[3,5-Bis(trifluoromethyl)phenoxy]ethyl}-N′-(7-hydroxy-5,6,7,8-tetrahydronaphthalen-1-yl)urea], the melting point lay within 144 to 149 °C. Further, the IC50 in series [1] was under 0.1 µM.

As for `CCOC(=O)c1c(F)cccc1OCCNC(=O)Nc1cccc2c1CC(O)CC2` (centres unmarked) [Example 1-3, Ethyl 2-Fluoro-6-{2-[3-(7-hydroxy-5,6,7,8-tetrahydronaphthalen-1-yl)-ureido]-ethoxy}benzoate], the melting point was in the range of 165 to 166 °C. In addition, the IC50 in series [1] is under 0.1 µM.
